Columns and labels:
Parameters in all cases: species or system AML cell lines (8); Primary HTS, single concentration about 10 uM, Cell Titer Glo viability; log10 luminescence, per cent inhibition relative to cycloheximide control
Settings in all cases: 72 h, relative to cycloheximide control, log10 luminescence; inhibitor
[1] = test system: ML-2
[2] = test system: MOLM-13
[3] = test system: MV4-11
[4] = test system: CMK
[5] = test system: U937
[6] = test system: CHRF288-11
[7] = test system: M07e
[8] = test system: CMS

SMILES	ML-2 %inh [1] [%]	MOLM-13 %inh [2] [%]	MV4-11 %inh [3] [%]	CMK %inh [4] [%]	U937 %inh [5] [%]	CHRF288-11 %inh [6] [%]	M07e %inh [7] [%]	CMS %inh [8] [%]
COc1ccc2ncn(-c3cc(O[C@H](C)c4ccccc4Cl)c(C(N)=O)s3)c2c1 [SJ000573018-1, U20814/197/10]	40.68	77.34	78.2	106.8	80.58	95.84	105.8	74.69
NC(=O)c1cc(-c2ccc(F)cc2)cc(-c2ccncc2)c1N [SJ000573019-1, R12070/183/1]	-4.125	2.771	-5.414	2.8	-0.8611	0.09024	-3.642	-0.425
CS(=O)(=O)CCNCc1coc(-c2ccc3ncnc(Nc4ccc(OCc5ccccc5)cc4)c3c2)c1 [SJ000573020-1, U12271/135/2]	1.422	31.36	24.68	4.823	2.077	-1.974	-2.581	-1.503
NC(=O)Cc1ccccc1Oc1nccc(-c2c(-c3ccc(F)cc3)ncn2C2CCNCC2)n1 [SJ000573021-1, JB27143-130B1]	0.1798	-3.279	-0.3846	-8.193	-0.5311	2.665	-2.017	1.576
CS(=O)(=O)CCNCc1ccoc1-c1ccc2ncnc(Nc3ccc(OCc4ccccc4)cc3)c2c1 [SJ000573022-1, U12271/142/3]	0.6017	26.01	13.73	1.228	-0.4603	3.335	4.198	-1.789
COc1cc2ncn(-c3cc(OCc4ccccc4Cl)c(C(N)=O)s3)c2cc1OC [SJ000573023-1, U22436/143/1]	36.08	81.3	72.02	98.04	71.67	71.75	101	71.19
CCS(=O)(=O)c1ccc(OC)c(Nc2ncc(-c3cccc(C(C)=O)c3)o2)c1 [SJ000573024-1, U16419/42/1]	-2.018	78.46	66.42	1.586	71.28	-0.8609	133.2	-0.9431
COc1cc2ncn(-c3cc(OCCc4ccccc4)c(C(N)=O)s3)c2cc1OC [SJ000573025-1, U19479/153/8]	0.6694	2.298	2.077	4.39	0.712	0.4642	0.3839	-1.969
N#Cc1c(NC(=O)c2cccc3ccccc23)sc2c1CCCC2 [SJ000573026-1, R15619/70/1 | TCS JNK 5A | JNK INHIBITOR IX | | TCS JNK 5A]	58.68	87.75	80.18	122.9	83.53	42.98	97.41	100.8
COc1cccc(-n2ncc3c(N/N=C/c4ccc(S(C)(=O)=O)cc4)ncnc32)c1 [SJ000573027-1, U18028/92/1]	-4.304	-3.446	1.569	-4.499	-1.909	-7.861	-5.045	0.1842
COc1cccc(Nc2nccc(-c3cnn4ncccc34)n2)c1 [SJ000573028-1, U18020/75/1]	57.03	96.5	76.07	112.7	74.45	61.5	96.77	93.88
COC(=O)Nc1nc2ccc(Sc3ccc(NC(=O)Nc4cc(C(F)(F)F)ccc4F)cc3)cc2[nH]1 [SJ000573029-1, T229/195/1]	2.621	17.62	2.362	38.89	5.795	10.2	3.372	-0.01293
NC(=O)c1cccc(Nc2nccc(Nc3cccc4[nH]ncc34)n2)c1 [SJ000573030-1, JA205171-001A6]	2.579	22.42	23.15	-1.424	-0.8011	16.39	5.4	1.464
Cc1cccc(Nc2ncc(-c3ccccc3)o2)c1 [SJ000573031-1, U21834/25/1]	2.781	78.79	58.38	4.152	0.1537	1.444	2.356	1.47
NC(=O)c1sc(-n2cnc3ccccc32)cc1OCc1ccccc1Br [SJ000573032-1, U22538/78/1]	42.25	1.858	0.1879	4.627	1.777	-0.9565	3.083	2.746
O=C(Nc1ccc(Oc2ccc3[nH]c(NC(=O)c4ccco4)nc3c2)cc1)Nc1cc(C(F)(F)F)ccc1F [SJ000573033-1, T261/93/1]	20.85	87.05	70.61	84.76	42.07	89.61	35.38	23.46
NS(=O)(=O)c1cccc(-c2cc3ccncc3cc2OCc2ccccc2)c1 [SJ000573034-1, R14712/3/10]	0.9825	2.316	0.8878	-0.5905	3.709	2.678	-1.198	1.551
COc1cccc(-n2ncc3c(N/N=C/c4ccc(C)cc4)ncnc32)c1 [SJ000573035-1, U19125/70/4]	-2.47	-2.64	-1.749	-4.291	2.182	-5.466	-2.359	5.04
CNC(=O)c1ncccc1Nc1nc(Nc2cc3c(cc2OC)CCCN3C(=O)CN(C)C)nc2[nH]ccc12 [SJ000573036-1, N6938-65-1]	45.98	47.47	4.775	7.075	17.5	21.29	30.44	1.812
COc1cccc(-n2ncc3c(N/N=C/c4ccncc4)ncnc32)c1 [SJ000573037-1, U25132/28/11]	0.6096	-2.08	1.553	-6.6	-2.89	6.081	-4.147	4.136
COc1cc2c(cc1Nc1nc(Nc3ccsc3C(N)=O)c3cc[nH]c3n1)N(C(=O)CN(C)C)CCC2(C)C [SJ000573038-1, N3343-83-1]	44.68	92.5	43.78	81.26	51.73	128.8	57.48	16.39
C[C@@H](Oc1cc(-n2cnc3ccc(OCC4CCN(C)CC4)cc32)sc1C(N)=O)c1ccccc1Cl [SJ000573039-1, U21976/12/1]	55.39	92.23	68.81	58.58	67.65	126.6	70.45	55.73
COc1cc(C)c(NC(=O)CN(C)C)cc1Nc1nc(Nc2cccc(F)c2C(N)=O)c2cc[nH]c2n1 [SJ000573040-1, N5326-72-2]	42.89	90.07	56.47	111.2	70.41	60.84	103.3	31.36
